Test: Inhibition of SARS-CoV Mpro
Set-up: species or system Severe acute respiratory syndrome-related coronavirus

Structure (SMILES) | IC50 [nM]
O=C(Oc1cncc(Cl)c1)c1ccc(-c2ccc(Cl)cc2)o1 | 63
O=C(Oc1cncc(Cl)c1)c1ccccc1[N+](=O)[O-] | 333
O=C(Oc1cncc(Cl)c1)c1cccc([N+](=O)[O-])c1 | 684
O=C(Oc1cncc(Cl)c1)c1ccc(-c2ccc(Cl)cc2[N+](=O)[O-])o1 | 122
O=C(Oc1cncc(Cl)c1)c1ccc(-c2cccc([N+](=O)[O-])c2)o1 | 500
O=C(Oc1cncc(Cl)c1)c1cc2ccccc2oc1=O | 108
O=C(Oc1cncc(Cl)c1)c1ccc(-c2ccc([N+](=O)[O-])cc2)o1 | 60
O=C(Oc1cncc(Cl)c1)c1ccc(-c2ccccc2[N+](=O)[O-])o1 | 208
O=C(Oc1cncc(Cl)c1)c1cccc2ccccc12 | 124

Reference: ChEMBL document CHEMBL1140760, “Molecular docking identifies the binding of 3-chloropyridine moieties specifically to the S1 pocket of SARS-CoV Mpro” (Bioorg Med Chem, 2008)
